Assay [1] relates to spinal cord tissues of EAE mice model. Briefly: Inflammatory cell infiltration in spinal cord tissues of EAE mice model (HE staining). The format is in vivo. The settings on record: day 29, positive control drug, dose not given. The procedure:
Preparation of mice model and administration: experimental autoimmune encephalomyelitis (EAE) mice model is an important tool for studying various human nervous system demyelinating diseases. In the present experiment, the preparation of EAE mice model was performed by immunizing female C57BL/6J mice with myelin sheath oligodendroglial cell surface glycoprotein MOG35-55. That is, the mice were subcutaneously injected at dorsal part of spinal column with 0.2 mL of MOG35-55 antigen elixir, and 0.2 ml of bordetella pertussis solution was intraperitoneally injected at the time of immunization injection and 48 h thereafter, respectively. […]
Experimental method: the mice were anesthetized with 10% chloral hydrate on the 29th day of experiment, fixed by perfusion of 4% paraformaldehyde, spinal cord tissues were taken for making paraffin sections, section thickness 5 μm. Stained with HE, observed under microscope, and scored according to the following standard: 0 score, absence of cell infiltration; 1 score, spinal meninge cell infiltration; 2 score, 1 to 4 small ranges of cell infiltration around vessels; 3 score, 5 or more small ranges of cell infiltration around vessels, or one or more accumulatively substantial large range of cell infiltration; 4 score, a large number of cell infiltration ranges accumulatively existing in 20% or more of white matter regions.

Assay [2] has as its system experimental autoimmune encephalomyelitis (EAE) rats model. Put plainly: Nervous function damage in EAE rats model. The format is in vivo, Lewis rats. The settings on record: peak of attack, positive control drug, dose not given. On the procedure: (§1) Preparation of rat model and administration: in this experiment, the preparation of EAE rat model was performed by multipoint immunizing female Lewis rats subcutaneously at tail root with a homogenate of spinal cord and cerebral gray matter of Guinea pig as well as complete Freund's adjuvant after emulsification. They were intragastrically administered with a composition of morroniside and loganin for 3 weeks.
Nervous function test method: the ethological changes of rats were observed by two experimenters using blind method every day. Scoring standard: 0 score, absence of symptom; 1 score, decrease of tail tension, visible evident slight gait awkward; 2 score, double hind limbs weak, walk difficult; 3 score, double hind limbs paralysis; 4 score, double hind limbs paralysis and fore limbs weak; 5 score, four limbs paralysis; 6 score, near death or died.

The test system of assay [3] is myelin sheath of spinal cord in EAE model mice. Briefly: Myelinoclasis of spinal cord in EAE mice model (LFB staining). The format is in vivo. The note with it: day 29, positive control drug, dose not given. On the procedure:
(§2) Preparation of mice model and administration: experimental autoimmune encephalomyelitis (EAE) mice model is an important tool for studying various human nervous system demyelinating diseases. In the present experiment, the preparation of EAE mice model was performed by immunizing female C57BL/6J mice with myelin sheath oligodendroglial cell surface glycoprotein MOG35-55. That is, the mice were subcutaneously injected at dorsal part of spinal column with 0.2 mL of MOG35-55 antigen elixir, and 0.2 ml of bordetella pertussis solution was intraperitoneally injected at the time of immunization injection and 48 h thereafter, respectively. The composition of morroniside and loganin was intragastrically administered after the last injection of bordetella pertussis solution, for consecutive 3 weeks.
Experimental method: the mice were anesthetized with 10% chloral hydrate on the 29th day of experiment, fixed by perfusion of 4% paraformaldehyde, myeloid tissues were taken for making paraffin sections, section thickness 5 μm. Stained with LFB, observed under microscope, and scored according to the following standard: 0 score, absence of myelinoclasis; 1 score, one small range of myelinoclasis; 2 score, 2 or 3 small ranges of myelinoclasis; 3 score, 1 to 2 large ranges of myelinoclasis; 4 score, large ranges of myelinoclasis accumulatively existing in 20% or more of white matter regions.

In assay [4] the test system is CNPase (marker protein of mature oligodendroglial cells). Put plainly: CNPase content in spinal cord of EAE model mice (Western blot). The format is in vivo. The note with it: positive control drug, dose not given. On the procedure:
as §2
Experimental method: the mice were anesthetized and sacrificed, fresh spinal cord was taken on ice, total protein was extracted by clearage on ice, to prepare Western blot sample, added with CNPase primary antibody and incubated, added with corresponding secondary antibody, ECL colorated, Kodak film exposed. Pictures were analyzed with Image J software and standardized with actin.

A short description of assay [5]: Body weight drop in EAE rat model. The format is in vivo, Lewis rats. The note with it: EAE rats, peak of attack; positive control drug, dose not given. On the procedure:
as §1
Experimental method: the methods for modeling and administration were the same of Experiment 7. The body weight changes of rats were recorded every day.

Assay [6] concerns experimental autoimmune encephalomyelitis (EAE) mice model. Briefly: Nervous function score in EAE mice model. The format is in vivo, C57BL/6J mice. The settings on record: peak of attack, positive control drug, dose not given. The procedure:
as §2
Nervous function test method: the ethological changes of mice were observed by two experimenters every day using blind method. Scoring standard: 0 score, absence of symptom; 1 score, decrease of tail tension, evident slight gait awkward; 2 score, disappearance of tail tension, moderate gait abnormal, deficient in maintaining gesture; 3 score, limb strength weak; 4 score, limb paralysis; 5 score, near death or died.

Assay [7] deals with IL-6. Put plainly: Serum IL-6 content in EAE mice model (ELISA). The format is in vivo. The settings on record: serum of EAE mice; positive control drug, dose not given. The procedure:
as §2
(§3) Experimental method: mice were anesthetized with pentobarbital sodium, blood sample was taken from abdominal aorta, stood at room temperature for 2 h, centrifuged at 3000 rpm for 20 min, and supernatant was taken, stored at −80° C. for use. The operation was performed strictly according to the steps of specification of ELISA kit. Optical density was measured with ELIASA at 450 nm. The corresponding contents of IL-1 and IL-6 were calculated with the measured OD values on standard curve.

In assay [8] the test system is IL-1. Put plainly: Serum IL-1 content in EAE mice model (ELISA). The format is in vivo. The note with it: serum of EAE mice; positive control drug, dose not given. The procedure:
as §2, §3
A general note: An ELISA detects its analyte on a solid surface through an enzyme-linked reagent.

Assay [9] can be described thus: Body weight drop in EAE mice model. The format is in vivo, C57BL/6J mice. The note with it: peak of attack, positive control drug, dose not given. The procedure: as §2
Experimental method: the methods for modeling and administration were the same of Experiment 1. The body weight changes of mice were recorded every day.

Consider `CC(=O)OCC(=O)[C@@]1(O)CC[C@H]2[C@@H]3CCC4=CC(=O)C=C[C@]4(C)[C@H]3C(=O)C[C@@]21C` [prednisone acetate], for which the “Inflammatory cell infiltration (HE staining score)” value in assay [1] amounted to 1.16 ± 0.12 score. Moreover, the “Nervous function damage score” value in [2] amounted to 1.16 ± 1.21 score; in [6] it was 1.36 ± 0.62 score. The “Myelinoclasis (LFB staining score)” value in [3] is recorded as 0.81 ± 0.21 score. Besides, in [4], the “Oligodendroglial cells (CNPase/actin integration grey level)” value was found to be 1.18 ± 0.02. Moreover, the values for the Bodyweight in assay [5] and in assay [9] were 198.5 ± 7.1 g and 20.52 ± 1.19 g, respectively. Also, in assay [7], the IL-6 content amounted to 0.124 ± 0.002 pg/mL. In [8], this compound returned a 1L-1 content of 0.114 ± 0.001 pg/mL.

Source of the values: patent US9233116B2, “Composition containing iridoids and uses thereof” (XUANWU HOSPITAL OF CAPITAL MEDICAL UNIVERSITY, priority 2010, dated 2016).
